In patent US4278596A, “Analgesic pentapeptides” (American Home Products Corporation, priority 1978, dated 1981):

What was measured:
rats = assay: rat-tail flick method of D'Amour and Smith; format: in vivo; settings: 5.0 mg/kg. i.v.
Method: In this procedure, a representative polypeptide of this invention, N-Me-Tyr-D-Ser-Gly-N-Me-Phe-D-Ser-NH2,acetate, produced significant analgesia in rats upon administration at a dose as low as 0.1 mg/kg. intravenously, and 0.5 mg/kg. subcutaneously.
When N-Me-Tyr-D-Ser-Gly-N-Me-Phe-D-Ser-NH2, acetate was tested in the rat-tail flick procedure of D'Amour and Smith (supra), the following results were obtained: […]

guinea pig ileum = settings: like morphine; cited from earlier work
opiate receptor = settings: brain homogenates; cited from earlier work
mouse vas deferns = settings: mouse vas deferens, like morphine; cited from earlier work

Row | Molecule | dead (rats) | effect on electrically evoked contractions (guinea pig ileum) | effect on stereospecific receptor binding of 3H-naloxone (opiate receptor) | effect on electrically evoked contractions (mouse vas deferns)
1 | CN[C@@H](Cc1ccc(O)cc1)C(=O)N[C@H](CO)C(=O)NCC(=O)N(C)[C@@H](Cc1ccccc1)C(=O)N[C@H](CO)C(N)=O [N-Methyl-Tyrosyl-D-Serylglycyl-N-MethylPhenylalanyl-D-Serinamide. Acetate] | 3/6 | – | – | –
2 | H-Tyr-Gly-Gly-Phe-Leu-OH [leucine-enkephalin] | – | block electrically evoked contractions | inhibit | block electrically evoked contractions
3 | H-Tyr-Gly-Gly-Phe-Met-OH [methionine-enkephalin] | – | block electrically evoked contractions | inhibit | block electrically evoked contractions
